Reference: patent US11845770B2, “Ascaroside derivatives and methods of use” (California Institute of Technology, priority 2019, dated 2023)
Entries after “also recorded” stand apart in the source; their conditions may differ.

What was measured:
Type in all cases: cell-based
[1] = system: THP1 human macrophage cells; test: Stimulation of THP-1 cells, IL-6 at 6 or 36 hours post stimulation; conditions: THP1-derived macrophages, IFNγ + LPS, 0.1 to 500 μM, FIG. 9
Experimental: Human immortalized monocytic THP-1 cells were maintained in phenol red free RPMI 1640 medium containing 10% (v/v) fetal bovine serum (FBS), 2 mM L-glutamine, penicillin (100 units/mL), streptomycin (100 μg/mL), amphotericin B (2.5 μg/mL), and 50 μM beta-mercaptoethanol (BME) at 37° C. with 5% (v/v) CO2. THP-1 cells were seeded in 1 mL of THP-1 medium (cell culture medium containing 10% (v/v) FBS, 2 mM L-glutamine, penicillin (100 units/mL), streptomycin (100 μg/mL), amphotericin B ([…]), and 50 μM BME)/well at a density of 1×10^6 cells/mL in six-well plates. Cells were differentiated by adding 10, 50, or 100 nM phorbol 12-myristate 13-acetate (PMA) to each well before incubating cells for 5.5 h at 37° C. with 5% (v/v) CO2. Without removing the media, different concentrations (either 0, 0.1, 1.0, 10, 100, 200, or 500 μM) of the compound were added to each well. Cells were stimulated, within 30 min by adding 20 ng/mL interferon gamma (IFNγ) and 100 ng/mL lipopolysaccharide (LPS) to each well. Following stimulation, the THP-1 cells were incubated for 6 or 36 hours at 37° C. with 5% (v/v) CO2. Supernatant was collected and stored at −80° C. until use.
IL-6 released from supernatants collected at 6 or 36 hours post stimulation with IFNγ and LPS were measured using the AlphaLISA Human IL-6 detection kit.

[2] = system: EPC2 human esophageal keratinocytes; test: Stimulation of EPC2-hTERT human esophageal keratinocytes with Poly(I:C); conditions: 24 hours; for percent inhibition relative to Stimulated of IL-6 expression: FIG. 19B; for percent inhibition relative to Stimulated of MCP-1 expression: FIG. 19C; for percent inhibition relative to Stimulated of TSLP expression: FIG. 19A
Experimental: EPC2-hTERT (EPC2) cells were maintained in supplemented keratinocyte serum-free medium (KSFM) with 0.09 mM calcium chloride containing epidermal growth factor (5 ng/mL), bovine pituitary extract ([…]), penicillin (100 units/mL), and streptomycin ([…]) (ThermoFisher #17005042) at 37° C. with 5% (v/v) CO2. EPC2 cells were seeded in 12-well plates at 0.55×10^6 cells per well in supplemented KSFM at 37° C. with 5% (v/v) CO2 and after 6 hours the old media is removed and changed with fresh media. After overnight incubation, the old media is changed to supplemented KSFM containing 1.8 mM calcium chloride and incubated for 72 hours at 37° C. with 5% (v/v) CO2. After the old media is removed and fresh supplemented KSFM containing 1.8 mM calcium chloride is added, the cells are pre-treated with different concentrations of compounds (0, 1, 10, 100, 500, 1000 μM) for 1 hour prior to stimulation. To stimulate the cells, Poly (I:C) (Tocris #4287) is added to the wells at […] concentration without removing the media and incubated for 24 hours at 37° C. with 5% (v/v) CO2. Supernatants are collected in Eppendorf tubes, centrifuged in a microfuge at maximum speed for 10 minutes at 4° C., and the centrifuged supernatants stored at −80° C. until quantitative detection assays are performed. Human Interleukin-6 (IL-6), Monocyte Chemoattractant Protein-1 (MCP-1), and Thymic stromal lymphopoietin (TSLP) released from supernatants collected post stimulation were measured using the AlphaLISA detection kit for human IL-6, MCP-1, and TSLP, respectively.

[3] = system: BEAS-2B human lung epithelial cells; test: Stimulation of BEAS-2B human lung epithelial cells, cytokine expression; conditions: 20 ng/mL IL-1β, 48 h; for percent inhibition relative to Stimulated of Eotaxin expression: FIG. 12, FIG. 13
Experimental: BEAS-2B cells were maintained in Bronchial Epithelial Cell Growth Basal Medium (BEBM) containing all the recommended supplements for the Bronchial Epithelial Cell Growth Medium (BEGM; Lonza #CC-4175) and allowed to attain approximately 70% confluency with media changed every 2-3 days at 37° C. with 5% (v/v) CO2. Tissue culture flasks/vessels were pre-coated with a mixture of 0.01 mg/mL fibronectin (Sigma), 0.03 mg/ml bovine collagen type I (Sigma) and 0.01 mg/mL bovine serum albumin dissolved in the BEBM. BEAS-2B cells were seeded with 0.5 ml of 1×10^6 cells/mL in BEGM per well on 24-well plates and incubated overnight at 37° C. with 5% (v/v) CO2. The cells are pre-treated with different concentrations of compounds (0, 1.0, 10, 100, 1000 μM) for 1 hour prior to stimulation. To stimulate the cells, 10 ng/mL of Interleukin-1 beta (IL-1β), 10 ng/mL of Lipopolysaccharides (LPS), or 20 ng/mL of IL-1$ is added to the wells without removing the media and incubated for 48 hours at 37° C. with 5% (v/v) CO2. Supernatants were collected and stored at −80° C. until quantitative detection assays are performed. Human Eotaxin, Monocyte Chemoattractant Protein-1 (MCP-1), Interleukin-6 (IL-6), Interleukin-25 (IL-25), Interleukin-33 (IL-33), Thymic stromal lymphopoietin (TSLP), and Granulocyte-Macrophage Colony-Stimulating Factor (GM-CSF) released from supernatants collected post stimulation were measured using Human Magnetic Luminex® Assay Kit. Human CCL5/RANTES was measured using an Enzyme-Linked Immunosorbent Assay (ELISA)-based analysis.

human naïve T cells = test: Stimulation of blood derived naïve T cells with Der p1 (house dust mite) antigen; conditions: at 100 μM; human T cells, Der p1 antigen; FIG. 15
Experimental: Naïve T cells from peripheral blood samples were collected and processed using MACSxpress® Whole Blood Pan T Cell Isolation Kit (Miltenyi Biotec), according to the manufacturer's protocol. Isolated naïve T cells were cultured in RPMI medium supplemented with 5% Fetal Bovine Serum (FBS) at 37° C. with 5% (v/v) CO2. T cells were seeded in 24 well plates at a density of 0.5×10^6 cells per well. The cells were pre-treated with the compounds (0, 0.1, 1.0, 10, 100 μM) for 1 hour prior to stimulation. Cells were stimulated with […] of Dermatophagoides pteronyssinus (Der p1) antigen. After 48 hours, fresh […] of Der p1 was added and continued incubating for a further 72 hours at 37° C. with 5% (v/v) CO2. Overall T cells were stimulated with […] of Der p1 antigen for 5 days before supernatants were collected and stored at −80° C. until quantitative detection assays are performed.
Human Interleukin-4 (IL-4), Interleukin-5 (IL-5), Interleukin-6 (IL-6), Interleukin-8 (IL-8), Interleukin-13 ([…]), Interleukin-23 (IL-23), and Interferon gamma (IFNγ) released from supernatants collected post stimulation were measured using Human Magnetic Luminex® Assay Kit. Human Transforming Growth Factor beta (TGFβ) was measured using an Enzyme-Linked Immunosorbent Assay (ELISA)-based analysis.

C[C@H](CCC1CC1C(=O)OC(C)(C)C)O[C@@H]1O[C@@H](C)[C@H](O)C[C@H]1O (stereo partly drawn) [Compound 2, tert-butyl 2-[(3R)-3-{[(2R,3R,5R,6S)-3,5-dihydroxy-6-methyloxan-2-yl]oxy}butyl]cyclopropane-1-carboxylate]
percent inhibition relative to Control of IL-6 levels secreted [1]: inhibited IL-6 expression in statistically significant, dose-dependent manner
percent inhibition relative to Stimulated of IL-6 expression ([2]; increasing concentrations): inhibited IL6 expression in statistically significant manner
percent inhibition relative to Stimulated of MCP-1 expression ([2]; increasing concentrations): inhibited MCP-1 expression in statistically significant manner; also recorded: only showed inhibition at the highest 100 μM concentration
percent inhibition relative to Stimulated of IL-6 expression ([2]; at 100 μM): robust inhibition
percent inhibition relative to Stimulated of Eotaxin expression [3]: statistically significant, complete inhibition

C[C@H](CC/C=C/C(=O)OCc1ccccc1)O[C@@H]1O[C@@H](C)[C@H](O)C[C@H]1O [Compound 4, benzyl (2E,6R)-6-{[(2R,3R,5R,6S)-3,5-dihydroxy-6-methyloxan-2-yl]oxy}hept-2-enoate]
percent inhibition relative to Stimulated of IL-6 expression (human naïve T cells): statistically significant inhibition
percent inhibition relative to Stimulated of IL-8 expression (human naïve T cells): statistically significant inhibition
percent inhibition relative to Stimulated of TNFα expression (human naïve T cells): statistically significant inhibition
percent inhibition relative to Stimulated of TSLP expression ([2]; increasing concentrations): statistically significant inhibition; also recorded: completely inhibited
percent inhibition relative to Stimulated of IL-6 expression ([2]; increasing concentrations): inhibited IL-6 expression in statistically significant, dose-dependent manner
percent inhibition relative to Stimulated of MCP-1 expression ([2]; increasing concentrations): inhibited MCP-1 expression in statistically significant manner; also recorded: only showed inhibition at the highest 100 μM concentration

C[C@H](CC/C=C/C(=O)OCc1cccnc1)O[C@@H]1O[C@@H](C)[C@H](O)C[C@H]1O [Compound 5, pyridin-3-ylmethyl (2E,6R)-6-{[(2R,3R,5R,6S)-3,5-dihydroxy-6-methyloxan-2-yl]oxy}hept-2-enoate]
percent inhibition relative to Control of IL-6 levels secreted [1]: inhibited IL-6 expression in statistically significant, dose-dependent manner

C[C@H](CC/C=C/C(=O)OCc1ccncc1)O[C@@H]1O[C@@H](C)[C@H](O)C[C@H]1O [Compound 6, pyridin-4-ylmethyl (2E,6R)-6-{[(2R,3R,5R,6S)-3,5-dihydroxy-6-methyloxan-2-yl]oxy}hept-2-enoate]
percent inhibition relative to Control of IL-6 levels secreted [1]: inhibited IL-6 expression in statistically significant, dose-dependent manner
percent inhibition relative to Stimulated of IL-33 expression ([3]; FIG. 12): statistically significant inhibition
percent inhibition relative to Stimulated of TSLP expression ([3]; FIG. 12): statistically significant inhibition
percent inhibition relative to Stimulated of Eotaxin expression [3]: statistically significant inhibition
percent inhibition relative to Stimulated of IL-25 expression ([3]; compound concentration series, FIG. 12): robust inhibition of IL-25 expression at 1 mM concentration
percent inhibition relative to Stimulated of IL-25 expression, level at which it topped out ([3]; even at 100 μM, FIG. 12): 60%

CC(C)OC(=O)/C=C/CC[C@@H](C)O[C@@H]1O[C@@H](C)[C@H](O)C[C@H]1O [Compound 8, isopropyl (R,E)-6-(((2R,3R,5R,6S)-3,5-dihydroxy-6-methyltetrahydro-2H-pyran-2-yl)oxy)hept-2-enoate]
percent inhibition relative to Control of IL-6 levels secreted [1]: inhibited IL-6 expression in statistically significant, dose-dependent manner

C[C@H](CCC(O)CC(=O)OC(C)(C)C)O[C@@H]1O[C@@H](C)[C@H](O)C[C@H]1O (stereo partly drawn) [Compound 9, tert-butyl (6R)-6-(((2R,3R,5R,6S)-3,5-dihydroxy-6-methyltetrahydro-2H-pyran-2-yl)oxy)-3-hydroxyheptanoate]
percent inhibition relative to Control of IL-6 levels secreted [1]: inhibited IL-6 expression in statistically significant, dose-dependent manner

C[C@@H]1O[C@@H](OCCC/C=C/C(=O)OC(C)(C)C)[C@H](O)C[C@H]1O [Compound 11, tert-butyl (E)-6-(((2R,3R,5R)-3,5-dihydroxy-6-methyltetrahydro-2H-pyran-2-yl)oxy)hex-2-enoate]
percent inhibition relative to Control of IL-6 levels secreted [1]: inhibited IL-6 expression in statistically significant, dose-dependent manner
percent inhibition relative to Stimulated of MCP-1 expression ([2]; increasing concentrations): inhibited MCP-1 expression in statistically significant, dose-dependent manner

C[C@H](CC/C=C/C(=O)N1CCCC1)O[C@@H]1O[C@@H](C)[C@H](O)C[C@H]1O [Compound 13, (R,E)-6-(((2R,3R,5R,6S)-3,5-dihydroxy-6-methyltetrahydro-2H-pyran-2-yl)oxy)-1-(pyrrolidin-1-yl)hept-2-en-1-one]
percent inhibition relative to Control of IL-6 levels secreted [1]: inhibited IL-6 expression in statistically significant, dose-dependent manner
percent inhibition relative to Stimulated of TSLP expression ([2]; increasing concentrations): inhibited TSLP expression in statistically significant manner; also recorded: robust blocking
percent inhibition relative to Stimulated of MCP-1 expression ([2]; increasing concentrations): inhibited MCP-1 expression in statistically significant manner
percent inhibition relative to Stimulated of MCP-1 expression ([2]; increasing concentrations, listed as compound 13): robust blocking of MCP-1 expression starting at 1 mM
